Test results reported in publication PMC5365662, “A Short Double-Stapled Peptide Inhibits Respiratory Syncytial Virus Entry and Spreading” (Antimicrobial Agents and Chemotherapy, 2017).
“Also recorded” adds a separate entry of the source. Bridge positions count the residues as written; N and C are the ends. Square brackets hold non-standard residues; d marks the D form. Peptide text beside a SMILES is read from it. R5 = C=CCCC[C@@](C)(N)C(=O)O; S5 = C=CCCC[C@](C)(N)C(=O)O

What was measured:
[1] = Far-UV circular dichroism, α-helical content; format: physicochemical; settings: CD, 10 mM phosphate buffer pH 7.5, 50 μM peptide, 25°C
Method: The circular dichroism spectra were acquired on a Chirascan spectropolarimeter. The samples were prepared in 10 mM phosphate buffer, pH 7.5, at a peptide concentration of 50 μM. Data were recorded at 25°C by step scan from 180 nm to 260 nm in a 0.5-mm path length quartz cell using 1-nm wavelength increments and a response time of 1 s. The data were converted to per residue molar ellipticity units [θ] (degree per square centimeter per decimole per residue) and smoothed using the Igor Pro software. The percentage of helicity was calculated as described previously ([35]).

[2] = tested on: rHRSV-mCherry in HEp-2 cells; assay: rHRSV-mCherry inhibition assay; format: cell-based, human respiratory syncytial virus
Procedure, shortened: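 HEp-2 cells infected at MOI 0.2 with rHRSV-mCherry preincubated 15–20 min with serially diluted peptide, peptide kept in 2% FBS medium for 48 h at 37°C. Replication read as mCherry fluorescence (ex 580/em 620 nm), normalized to untreated infected cells; duplicates, curves fitted.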

HEp-2 cells = assay: Cytotoxicity, CellTiter-Glo Luminescent cell viability assay; format: cell-based; settings: serial dilutions of peptide, 24 h, duplicates
Method: Viral replication was quantified by measuring the mCherry fluorescence at 48 h p.i. and normalized based on the fluorescence of infected and untreated cells. (B) Cytotoxicity assay. HEp-2 cells were incubated in the presence of serial dilutions of peptides, and cell survival was quantified using the CellTiter-Glo Luminescent cell viability assay 24 h after the addition of the peptides. The signal was normalized based on the luminescence obtained for untreated cells. Error bars are standard deviations from duplicates.
A549 (ATCC CCL-185) cells were maintained in Dulbecco's modified Eagle medium (DMEM) supplemented with 10% fetal calf serum (FCS). HEp-2 (ATCC CCL-23) cells were maintained in Eagle's miminum essential medium (EMEM) supplemented with 10% FCS, 2 mM L-glutamine, and penicillin-streptomycin solution. The cells were grown in an incubator at 37°C in 5% CO2. Cytotoxicity assays were done with the CellTiter-Glo Luminescent cell viability assay (Promega).

[3] = Histological analysis of lungs; format: in vivo, BALB/c mice
Method: In order to track the infection, we used the recombinant virus rHRSV-Luc, which was previously shown to allow in vivo imaging studies of RSV replication and spreading and constitutes a powerful and convenient tool for the evaluation of drug efficiency against RSV in the mouse model ([24]). […] Mice were anesthetized at day 3 p.i. and observed alive using the IVIS imaging system 5 min after i.n. injection of D-luciferin. […] At day 3 p.i., a second dose of the peptide was administered to the mice, and the bioluminescence was measured at day 5 p.i. […] At day 7 p.i., a time corresponding to the end of the infection in mice, the animals were sacrificed and the lungs were collected in order to perform a histological analysis. […]
Mice were sacrificed at day 7 p.i., the chest cavity was opened, and the lungs were perfused intratracheally with 4% paraformaldehyde (PFA) in PBS. […] The lungs were embedded in paraffin, and 5-μm sections were cut, stained with hematoxylin-eosin-saffron (HES), and evaluated microscopically. Qualitative histological changes were described and when applicable were scored semiquantitatively using a three-point scale from 0 to 2 (0, none; 1, mild; 2, marked), focusing on histological characterization of lesions (interstitial pneumonia, respiratory epithelial cell apoptosis, and hyperplasia) and inflammation.

[4] = format: in vivo; settings: noninfected mice, same i.n. protocol, blood 1 month after first inoculation, ELISA, data not shown
Method: To investigate this further, peptide 4ca was administered to noninfected animals according to the same protocol. The blood of mice was collected 1 month after the first inoculation, and the presence of anti-4ca antibodies in the sera of these animals was analyzed by enzyme-linked immunosorbent assay (ELISA).

[5] = Temperature-dependent CD (T ramp), oligomeric state; format: physicochemical; settings: 25 and 50 μM peptide, 25°C to 90°C in 5°C increments
Method: The temperature was increased from 25°C to 90°C in 5°C increments. […] Next, HEp-2 cells were infected with a recombinant RSV expressing the mCherry reported gene ([24]), and the inhibitory activity of the double-stapled peptides was quantified by fluorescence readout.
B) […]. The cell holding the sample was heating at the desired temperature and the CD spectra was measured as described in material and methods. The temperature was increased from 25 °C to 90 °C by 5 °C increments.
Panel C) and D) are the CD curve performed at 25 °C prior to increase the temperature (unheated) and after letting the sample heated at 90 °C (heated) cool down to 25 °C. […]

SMILES: CC[C@H](C)[C@@H]1NC(=O)[C@H](Cc2ccccc2)NC(=O)[C@@](C)(NC(=O)[C@H](CC(C)C)NC(=O)[C@H](CO)NC(=O)[C@]2(C)CCCC=CCCC[C@@](C)(NC(=O)[C@H](CCC(=O)O)NC(C)=O)C(=O)N[C@@H]([C@@H](C)CC)C(=O)N[C@@H](CC(N)=O)C(=O)N2)CCCC=CCCC[C@@](C)(C(=O)N[C@@H](CO)C(=O)N[C@@H](CC(=O)O)C(=O)N[C@@H](CCC(=O)O)C(=O)N[C@@H](CC(C)C)C(=O)N[C@@H](CC(C)C)C(=O)N[C@@H](Cc2c[nH]cn2)C(=O)N[C@@H](CC(N)=O)C(=O)N[C@H](C(N)=O)C(C)C)NC(=O)[C@H](CCCNC(=N)N)NC1=O [Peptide 4ca] (Ac-E[R5]IN[S5]SL[S5]FIR[S5]SDELLHNV-NH2; staple 2-5, 8-12)
- % Helicity ([1]; Table 2): >100%
- % Helicity ([1]; Table 3 (Ala scan)): 85%
- EC50 ([2]; HEp-2, rHRSV-mCherry MOI 0.2, addition of peptide after infection of cells, 48 h p.i.): 8300 nM
- EC50 ([2]; HEp-2, rHRSV-mCherry MOI 0.2, preincubation of the virus with peptide prior to cell infection, 48 h p.i.): 860 nM
- EC50 ([2]; HEp-2, rHRSV-mCherry MOI 0.2, preincubation of virus with peptide and peptide maintained in medium after infection, 48 h p.i.): 470 nM
- increase of antiviral potency relative to T118 ([2]; HEp-2, rHRSV-mCherry, EC50 versus T118 EC50 6.33 μM): 11 fold
- EC50 ([2]; HEp-2 cells, RSV-Cherry MOI 0.2, peptide and virus removed after infection and fresh peptide added, mCherry fluorescence 48 h p.i., at least twice in duplicate): 590 ± 130 nM
- EC50 ([2]; Table 3 (Ala scan), HEp-2 cells, rHRSV-mCherry MOI 0.2, 2-fold serial dilutions (11 dilutions), duplicate, ± SD of fit): 780 ± 60 nM
- cellular toxicity (HEp-2 cells): no cellular toxicity was detected
- histological changes in lung parenchyma (toxicity) ([3]; 4ca-inoculated versus mock-inoculated noninfected mice, i.n. 50 μl at 50 μM, day 7, HES staining): no histological changes
- interstitial pneumonia after RSV infection ([3]; RSV-infected mice treated i.n. with 4ca, day 7 p.i., HES staining): no interstitial pneumonia was observed
- antibodies specific to 4ca in sera (anti-IgG1, anti-IgG2a, anti-IgA) [4]: no antibodies specific to 4ca could be detected
- conformational change / aggregation on temperature ramping [5]: No significant conformational change; also recorded: does not aggregate
